# Experimental data published in patent publication US8242145B2, “Cyclic diaryl ether compounds as antagonists of prostaglandin D2 receptors” (Panmira Pharmaceuticals, LLC, priority 2008, dated 2012).
# Assays:
# human DP2 receptor = molecular target: T1, human DP2 receptor (Homo sapiens, UniProt Q9Y5Y4); test: DP2/CRTH2 radioligand binding assay using [3H]PGD2; settings: hDP2 (CRTH2) binding assay
# T1 construct: expressed in transfected cells
# T1 sequence (Q9Y5Y4 1-395): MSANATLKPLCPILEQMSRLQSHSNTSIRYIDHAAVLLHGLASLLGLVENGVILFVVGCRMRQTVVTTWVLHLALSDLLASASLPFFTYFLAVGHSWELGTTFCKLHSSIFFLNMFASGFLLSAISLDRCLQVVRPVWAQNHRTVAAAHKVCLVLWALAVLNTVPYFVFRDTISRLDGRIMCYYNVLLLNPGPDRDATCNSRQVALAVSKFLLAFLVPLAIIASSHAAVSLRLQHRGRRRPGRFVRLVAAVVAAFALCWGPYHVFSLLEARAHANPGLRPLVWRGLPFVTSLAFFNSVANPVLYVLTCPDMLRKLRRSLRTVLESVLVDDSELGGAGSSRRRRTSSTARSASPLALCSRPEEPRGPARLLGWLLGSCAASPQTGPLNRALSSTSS
# Procedure, shortened: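 HEK293 membranes with stable recombinant human DP2, incubated with 1 nM [3H]PGD2 and compound 60 min at room temperature in pH 7.4 HEPES/MnCl2/EDTA buffer, with or without 0.2% human serum albumin.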
# [1] = molecular target: T2, recombinant human CRTH2 receptor (Homo sapiens, UniProt Q9Y5Y4); test: GTPγS binding assay; type: biochemical; settings: +HSA; read-out: hDP2 GTPγS μM (+HSA)
# T2 construct: expressed in transfected cells
# T2 sequence (Q9Y5Y4 1-395): T1 sequence (Q9Y5Y4 1-395)
# Method: The ability of a compound to inhibit binding of GTP to DP2 is assessed via a membrane GTPγS assay. CHO cells stably expressing the recombinant human CRTH2 receptor are resuspended in 10 mM Hepes, 7.4 containing 1 mM DTT, lysed and centrifuged at 75,000×g to pellet the membranes. The membranes are resuspended in 10 mM Hepes, 7.4 containing 1 mM DTT and 10% glycerol. Membranes (˜12.5 μg per well) are incubated in 96-well plates with 0.05 nM [^35S]-GTPγS, 80 nM PGD2, 5 μM GDP, and test compound in Assay Buffer (50 mM Hepes, pH 7.4, 100 mM NaCl, 5 mM MgCl2 and 0.2% human serum albumin) for 60 minutes at 30° C. The reactions are terminated by rapid filtration through Whatman GF/B glass fibre filter plates. The filter plates are washed 3 times with 1 ml cold Assay Buffer and dried. Scintillant is then added to the plates and the radioactivity retained on the filters is determined on a Packard TopCount (Perkin Elmer). Specific binding is determined as total radioactive binding minus non-specific binding in the absence of the ligand (80 nM PGD2). IC50s were determined using Graphpad prism analysis of drug titration curves.
# human DP1 receptor = molecular target: T3, human DP1 receptor (Homo sapiens, UniProt Q13258); test: DP1 radioligand binding assay using [3H]BWA868C; settings: hDP1 binding
# T3 construct: tissue Biological Specialty Corporation; host or cells: human platelets, membranes
# T3 sequence (Q13258 1-359): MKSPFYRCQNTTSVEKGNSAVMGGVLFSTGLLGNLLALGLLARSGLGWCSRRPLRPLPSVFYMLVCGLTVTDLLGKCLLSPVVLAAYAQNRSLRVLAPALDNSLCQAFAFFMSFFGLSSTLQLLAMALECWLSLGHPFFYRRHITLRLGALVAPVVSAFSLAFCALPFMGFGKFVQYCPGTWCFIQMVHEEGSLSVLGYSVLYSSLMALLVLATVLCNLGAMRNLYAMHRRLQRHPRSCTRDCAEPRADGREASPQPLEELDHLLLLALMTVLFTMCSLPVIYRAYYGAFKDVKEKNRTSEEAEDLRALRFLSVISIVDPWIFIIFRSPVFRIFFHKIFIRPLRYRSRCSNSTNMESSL
# Procedure, shortened: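 Human platelet membranes (20 μg protein/well) incubated 60 min at room temperature with 2 nM [3H]BWA868C in 50 mM Hepes, 10 mM MnCl2, 1 mM EDTA, ±0.2% human serum albumin, pH 7.4. Bound label measured after filtration; nonspecific binding defined with 10 μM BW A868C. IC50 from titration curves.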
SMILES,IC50 (human DP2 receptor),IC50 [1],IC50 (human DP1 receptor)
"O=C(O)CCn1c2c(c3ccccc31)C[C@H](NS(=O)(=O)c1ccc(F)cc1)CC2 [Ramatroban, reference compound]",300 to 1000 nM,0.3 to 1 µM,> 1000 nM
"C[C@@H]1[C@H](c2ccccc2)OC(=O)N1Cc1cc(C(F)(F)F)ccc1Oc1cc(CC(=O)O)ccc1O [Compound 1-78, {4-Hydroxy-3-[2-((4R,5S)-4-methyl-2-oxo-5-phenyl-oxazolidin-3-ylmethyl)-4-trifluoromethyl-phenoxy]-phenyl}-acetic acid]",< 300 nM,< 0.3 µM,> 1000 nM
"CCNC(=O)c1ccc(Oc2cccc(CC(=O)O)c2)c(CN2CCOC2=O)c1 [Compound 1-6, {3-[4-Ethylcarbamoyl-2-(2-oxo-oxazolidin-3-ylmethyl)-phenoxy]-phenyl}-acetic acid]",300 to 1000 nM,0.3 to 1 µM,> 1000 nM
"Cc1noc(C)c1-c1ccc(Oc2cccc(CC(=O)O)c2)c(CN2C(=O)O[C@H](c3ccccc3)[C@@H]2C)c1 [Compound 1-76, {3-[4-(3,5-Dimethyl-isoxazol-4-yl)-2-((4S,5R)-4-methyl-2-oxo-5-phenyl-oxazolidin-3-ylmethyl)-phenoxy]-phenyl}-acetic acid]",< 300 nM,0.3 to 1 µM,< 300 nM
"O=C(O)Cc1cccc(Oc2ccc(C(F)(F)F)cc2CN2C(=O)O[C@@H]3Cc4ccccc4[C@@H]32)c1 [Compound 2-3, {3-[2-((3aS,8aR)-2-Oxo-8,8a-dihydro-3aH-indeno[1,2-d]oxazol-3-ylmethyl)-4-trifluoromethyl-phenoxy]-phenyl}-acetic acid]",< 300 nM,0.3 to 1 µM,> 1000 nM
"COc1ccc(-c2ccc(Oc3cc(CC(=O)O)ccc3OC)c(CN3C(=O)O[C@H](c4ccccc4)[C@@H]3C)c2)cc1 [Compound 1-39, {4-Methoxy-3-[4′-methoxy-3-((4S,5R)-4-methyl-2-oxo-5-phenyl-oxazolidin-3-ylmethyl)-biphenyl-4-yloxy]-phenyl}-acetic acid]",< 300 nM,> 1 µM,> 1000 nM
"COc1ccc(CC(=O)O)cc1Oc1cc(Br)ccc1CN1C(=O)O[C@@H](c2ccccc2)[C@H]1C [Compound 1-82, {3-[5-Bromo-2-((4R,5S)-4-Methyl-2-oxo-5-phenyl-oxazolidin-3-ylmethyl)-phenoxy]-4-methoxy-phenyl}-acetic acid]",< 300 nM,< 0.3 µM,> 1000 nM
"COc1ccc(CC(=O)O)cc1Oc1ccc(Br)cc1CN1C(=O)O[C@@H](c2cc(F)cc(F)c2)[C@H]1C [Compound 1-63, (3-{4-Bromo-2-[(4R,5S)-5-(3,5-difluoro-phenyl)-4-methyl-2-oxo-oxazolidin-3-ylmethyl]-phenoxy}-4-methoxy-phenyl)-acetic acid]",< 300 nM,< 0.3 µM,> 1000 nM
"COc1ccc(CC(=O)O)cc1Oc1ccc(Cl)cc1CN1CCOC1=O [Compound 1-86, {3-[4-Chloro-2-(2-oxo-oxazolidin-3-ylmethyl)-phenoxy]-4-methoxy-phenyl}-acetic acid]",< 300 nM,< 0.3 µM,> 1000 nM
"O=C(O)Cc1cc(Cl)cc(Oc2ccc(Br)cc2CN2CCOC2=O)c1 [Compound 1-89, {3-[4-Bromo-2-(2-oxo-oxazolidin-3-ylmethyl)-phenoxy]-5-chloro-phenyl}-acetic acid]",< 300 nM,< 0.3 µM,> 1000 nM
"COc1ccc(CC(=O)O)cc1Oc1ccc(-c2cnn(C)c2)cc1CN1C(=O)O[C@H](c2ccccc2)[C@@H]1C [Compound 1-43, {4-Methoxy-3-[2-((4S,5R)-4-methyl-2-oxo-5-phenyl-oxazolidin-3-ylmethyl)-4-(1-methyl-1H-pyrazol-4-yl)-phenoxy]-phenyl}-acetic acid]",< 300 nM,0.3 to 1 µM,> 1000 nM
"C[C@H]1[C@@H](c2ccccc2)OC(=O)N1Cc1cc(Br)ccc1Oc1cccc(CC(=O)O)c1 [Compound 1-15, {3-[4-Bromo-2-((4S,5R)-4-methyl-2-oxo-5-phenyl-oxazolidin-3-ylmethyl)-phenoxy]-phenyl}-acetic acid]",< 300 nM,0.3 to 1 µM,< 300 nM
"O=C(O)Cc1cccc(Oc2ccc(C(F)(F)F)cc2CN2C(=O)OC3c4ccccc4CC32)c1 (stereo not drawn) [Compound 2-7, {3-[2-(2-Oxo-4,8b-dihydro-3aH-indeno[2,1-d]oxazol-3-ylmethyl)-4-trifluoromethyl-phenoxy]-phenyl}-acetic acid]",< 300 nM,< 0.3 µM,> 1000 nM
"COc1ccc(CC(=O)O)cc1Oc1ccc(Cl)cc1CN1C(=O)O[C@@H](c2ccccc2)[C@H]1C [Compound 1-59, {3-[4-Chloro-2-((4R,5S)-4-methyl-2-oxo-5-phenyl-oxazolidin-3-ylmethyl)-phenoxy]-4-methoxy-phenyl}-acetic acid]",< 300 nM,< 0.3 µM,> 1000 nM

# The remaining lines, values ahead:
IC50 (human DP2 receptor),IC50 [1],IC50 (human DP1 receptor),SMILES
< 300 nM,< 0.3 µM,> 1000 nM,"COc1ccc(CC(=O)O)cc1Oc1ccc(Cl)cc1CN1C(=O)O[C@H](c2ccccc2)[C@@H]1C [Compound 1-31, {3-[4-Chloro-2-((4S,5R)-4-methyl-2-oxo-5-phenyl-oxazolidin-3-ylmethyl)-phenoxy]-4-methoxy-phenyl}-acetic acid]"
< 300 nM,< 0.3 µM,> 1000 nM,"O=C(O)Cc1cccc(Oc2ccc(Br)cc2CN2C(=O)OC[C@@H]2c2ccccc2)c1 [Compound 1-45, {3-[4-Bromo-2-((S)-2-oxo-4-phenyl-oxazolidin-3-ylmethyl)-phenoxy]-phenyl}-acetic acid]"
< 300 nM,< 0.3 µM,> 1000 nM,"COc1ccc(CC(=O)O)cc1Oc1ccc(-c2cn[nH]c2)cc1CN1C(=O)O[C@H](c2ccccc2)[C@@H]1C [Compound 1-42, {4-Methoxy-3-[2-((4S,5R)-4-methyl-2-oxo-5-phenyl-oxazolidin-3-ylmethyl)-4-(1H-pyrazol-4-yl)-phenoxy]-phenyl}-acetic acid]"
< 300 nM,< 0.3 µM,> 1000 nM,"COc1ccc(CC(=O)O)cc1Oc1ccc(Br)cc1CN1C(=O)O[C@@H](c2ccccc2)[C@H]1C [Compound 1-60, {3-[4-Bromo-2-((4R,5S)-4-methyl-2-oxo-5-phenyl-oxazolidin-3-ylmethyl)-phenoxy]-4-methoxy-phenyl}-acetic acid]"
< 300 nM,< 0.3 µM,> 1000 nM,"COc1ccc(CC(=O)O)cc1Oc1ccc(-c2cccnc2)cc1CN1C(=O)O[C@H](c2ccccc2)[C@@H]1C [Compound 1-40, {4-Methoxy-3-[2-((4S,5R)-4-methyl-2-oxo-5-phenyl-oxazolidin-3-ylmethyl)-4-pyridin-3-yl-phenoxy]-phenyl}-acetic acid]"
< 300 nM,< 0.3 µM,> 1000 nM,"COc1ccc(CC(=O)O)cc1Oc1cc(Br)ccc1CN1C(=O)O[C@H](c2ccccc2)[C@@H]1C [Compound 1-81, {3-[5-Bromo-2-((4S,5R)-4-methyl-2-oxo-5-phenyl-oxazolidin-3-ylmethyl)-phenoxy]-4-methoxy-phenyl}-acetic acid]"
< 300 nM,< 0.3 µM,< 300 nM,"C[C@H]1[C@@H](c2cc(C(F)(F)F)cc(C(F)(F)F)c2)OC(=O)N1Cc1cc(Br)ccc1Oc1cccc(CC(=O)O)c1 [Compound 1-18, (3-{2-[(4S,5R)-5-(3,5-Bis-trifluoromethyl-phenyl)-4-methyl-2-oxo-oxazolidin-3-ylmethyl]-4-bromo-phenoxy}-phenyl)-acetic acid]"
